Data from patent US6962941B2, “Tryptase inhibitors” (Altana Pharma AG, priority 2001, dated 2005).

Target: human tryptase
Test: Inhibition of human tryptase (apparent dissociation constant, tos-Gly-Pro-Arg-pNA cleavage)
Assay type: biochemical
Conditions: pKiapp = -log Kiapp (mol/l), in the presence of substrate, heparin 0.1-50 μg/ml
Description: The documented pathophysiological effects of mast cell tryptase are brought about directly by the enzymatic activity of the protease. Accordingly, they are reduced or blocked by inhibitors which inhibit the enzymatic activity of tryptase. A suitable measure of the affinity of a reversible inhibitor for the target protease is the equilibrium dissociation constant Ki of the enzyme/inhibitor complex. This value of Ki can be determined via the influence of the inhibitor on the tryptase-induced cleavage of a chromogenic peptide-p-nitroanilide substrate or of a fluorogenic peptide-aminomethylcoumarin substrate.
The dissociation constants for the tryptase/inhibitor complexes are determined under equilibrium conditions in accordance with the general proposals of Bieth (Bieth J. G., Pathophysiological Interpretation of kinetic constants of protease inhibitors, Bull. Europ. Physiopath. Resp. 16:183-195, 1980) and the methods of Sommerhoff et al. (Sommerhoff C. P. et al., A Kazal-type inhibitor of human mast cell tryptase: Isolation from the medical leech Hirudo medicinalis, characterization, and sequence analysis, Biol. Chem. Hoppe-Seyler 375: 685-694, 1994).
Human tryptase is prepared pure from lung tissue or is prepared by recombination; the specific activity of the protease which has been determined by titration is normally more than 85% of the theoretical value. […]

pKiapp: 8.35
Compound: COC(=O)C1CC(NC(=O)OCC#CCOC(=O)NC2CC(C(=O)OC)N(C(=O)CCc3cccc(CN)c3)C2)CN1C(=O)CCc1cccc(CN)c1.Cl.Cl (stereo not shown) [Compound 1, 1,4-Bis-{N-[3-(3-aminomethylphenylproplonyl)-2-methoxycarbonylpyrrolidin-4-yl]aminocarbonyloxy}-2-butyne dihydrochloride]
